The text below walks through data of ChEMBL document CHEMBL5465560, “Selectivity Literature for EUbOPEN Chemogenomic Library” (2024).

Assay [1] has as its target RAC-beta serine/threonine-protein kinase (Homo sapiens) (UniProt P31751). As to the kind of experiment: Selectivity interaction (SelectScreen profiling (Invitrogen)) EUB0000607a AKT2. Conditions: at 2 µM.
The target of assay [2] is Protein-tyrosine kinase 2-beta (Homo sapiens) (UniProt Q14289). The assay is described as follows: Selectivity interaction (KinomeScan (DiscoverX)) EUB0000607a PTK2B. Conditions: at 10 µM.
Protein-tyrosine kinase 2-beta (Homo sapiens), sequence (Q14289 whole entry, looked up): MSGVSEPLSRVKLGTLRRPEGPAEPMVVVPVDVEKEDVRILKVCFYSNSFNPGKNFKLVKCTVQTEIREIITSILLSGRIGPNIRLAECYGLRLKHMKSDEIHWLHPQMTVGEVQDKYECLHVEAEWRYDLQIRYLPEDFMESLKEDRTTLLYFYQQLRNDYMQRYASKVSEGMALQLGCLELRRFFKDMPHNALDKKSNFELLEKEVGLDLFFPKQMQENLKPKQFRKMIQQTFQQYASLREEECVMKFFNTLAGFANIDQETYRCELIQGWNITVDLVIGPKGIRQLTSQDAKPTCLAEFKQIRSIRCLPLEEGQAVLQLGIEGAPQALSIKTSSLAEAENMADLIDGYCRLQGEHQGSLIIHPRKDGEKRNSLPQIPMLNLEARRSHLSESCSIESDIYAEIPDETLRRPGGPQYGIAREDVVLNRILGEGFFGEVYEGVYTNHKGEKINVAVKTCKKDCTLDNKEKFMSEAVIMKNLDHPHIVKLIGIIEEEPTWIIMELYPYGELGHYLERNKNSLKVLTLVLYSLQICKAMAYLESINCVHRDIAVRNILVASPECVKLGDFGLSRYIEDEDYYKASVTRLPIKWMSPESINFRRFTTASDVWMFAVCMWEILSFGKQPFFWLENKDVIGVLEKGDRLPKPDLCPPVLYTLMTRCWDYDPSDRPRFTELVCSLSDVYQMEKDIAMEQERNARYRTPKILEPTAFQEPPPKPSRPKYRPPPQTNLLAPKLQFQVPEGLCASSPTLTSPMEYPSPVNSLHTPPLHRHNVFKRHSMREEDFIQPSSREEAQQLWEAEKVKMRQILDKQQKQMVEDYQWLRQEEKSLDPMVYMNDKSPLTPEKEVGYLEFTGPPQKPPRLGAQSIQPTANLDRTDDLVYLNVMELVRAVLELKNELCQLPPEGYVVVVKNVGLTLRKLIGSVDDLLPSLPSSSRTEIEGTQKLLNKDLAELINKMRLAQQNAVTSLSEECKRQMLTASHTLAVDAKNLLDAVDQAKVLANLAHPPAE
In assay [3] the target is T1, MAP/microtubule affinity-regulating kinase 4 (Homo sapiens) (UniProt Q96L34).
T1 sequence (whole entry): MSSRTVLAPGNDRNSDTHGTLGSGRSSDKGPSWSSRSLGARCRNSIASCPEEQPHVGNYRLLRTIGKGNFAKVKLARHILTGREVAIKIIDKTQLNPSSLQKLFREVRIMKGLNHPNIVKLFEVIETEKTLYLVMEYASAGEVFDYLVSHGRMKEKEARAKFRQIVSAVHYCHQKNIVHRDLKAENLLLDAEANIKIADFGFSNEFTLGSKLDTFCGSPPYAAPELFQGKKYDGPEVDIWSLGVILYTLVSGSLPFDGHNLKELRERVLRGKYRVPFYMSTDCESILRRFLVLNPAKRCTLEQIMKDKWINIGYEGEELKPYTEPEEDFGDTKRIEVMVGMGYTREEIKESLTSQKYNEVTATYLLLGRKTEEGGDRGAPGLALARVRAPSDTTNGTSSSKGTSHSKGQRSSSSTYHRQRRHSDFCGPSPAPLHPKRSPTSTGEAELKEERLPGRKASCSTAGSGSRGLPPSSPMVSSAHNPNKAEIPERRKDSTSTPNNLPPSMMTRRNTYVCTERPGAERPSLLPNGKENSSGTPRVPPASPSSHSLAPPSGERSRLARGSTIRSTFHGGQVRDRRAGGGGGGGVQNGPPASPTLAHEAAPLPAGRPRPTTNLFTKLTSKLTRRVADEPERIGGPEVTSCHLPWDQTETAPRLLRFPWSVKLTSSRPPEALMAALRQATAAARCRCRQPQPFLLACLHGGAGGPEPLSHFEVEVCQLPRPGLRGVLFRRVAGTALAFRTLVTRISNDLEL
The assay is described as follows: Selectivity interaction (KinomeScan (DiscoverX)) EUB0000607a MARK4. Conditions: at 10 µM.

Assay [4] deals with T2, Tyrosine-protein kinase receptor TYRO3 (Homo sapiens) (UniProt Q06418).
T2 sequence (whole entry): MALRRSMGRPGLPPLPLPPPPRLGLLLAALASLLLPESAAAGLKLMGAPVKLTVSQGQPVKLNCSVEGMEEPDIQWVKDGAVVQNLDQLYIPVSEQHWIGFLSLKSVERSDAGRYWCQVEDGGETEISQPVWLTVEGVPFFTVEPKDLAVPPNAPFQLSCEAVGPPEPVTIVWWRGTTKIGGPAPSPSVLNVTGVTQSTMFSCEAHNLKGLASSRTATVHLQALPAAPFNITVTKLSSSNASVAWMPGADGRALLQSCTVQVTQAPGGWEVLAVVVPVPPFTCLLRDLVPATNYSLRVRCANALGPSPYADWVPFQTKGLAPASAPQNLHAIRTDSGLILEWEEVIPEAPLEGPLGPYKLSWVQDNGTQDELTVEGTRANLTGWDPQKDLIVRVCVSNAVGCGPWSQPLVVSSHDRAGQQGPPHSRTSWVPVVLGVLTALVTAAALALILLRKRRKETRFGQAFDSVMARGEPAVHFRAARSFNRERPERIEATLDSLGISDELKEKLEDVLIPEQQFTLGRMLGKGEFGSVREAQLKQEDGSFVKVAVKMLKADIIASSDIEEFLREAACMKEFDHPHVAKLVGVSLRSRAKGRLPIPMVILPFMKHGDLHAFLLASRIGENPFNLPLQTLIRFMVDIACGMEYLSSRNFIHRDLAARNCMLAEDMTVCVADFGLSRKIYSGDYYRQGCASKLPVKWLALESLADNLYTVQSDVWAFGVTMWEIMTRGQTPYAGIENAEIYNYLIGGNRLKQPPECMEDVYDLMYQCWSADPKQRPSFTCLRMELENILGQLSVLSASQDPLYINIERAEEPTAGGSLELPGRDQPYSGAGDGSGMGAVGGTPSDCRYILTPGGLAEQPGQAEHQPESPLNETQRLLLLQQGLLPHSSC
The assay is described as follows: Selectivity interaction (SelectScreen profiling (Invitrogen)) EUB0000607a TYRO3. Conditions: at 2 µM.

The target in assay [5] is Death-associated protein kinase 3 (Homo sapiens) (UniProt O43293). Conditions: at 10 µM.
Death-associated protein kinase 3 (Homo sapiens), sequence (O43293 whole entry, looked up): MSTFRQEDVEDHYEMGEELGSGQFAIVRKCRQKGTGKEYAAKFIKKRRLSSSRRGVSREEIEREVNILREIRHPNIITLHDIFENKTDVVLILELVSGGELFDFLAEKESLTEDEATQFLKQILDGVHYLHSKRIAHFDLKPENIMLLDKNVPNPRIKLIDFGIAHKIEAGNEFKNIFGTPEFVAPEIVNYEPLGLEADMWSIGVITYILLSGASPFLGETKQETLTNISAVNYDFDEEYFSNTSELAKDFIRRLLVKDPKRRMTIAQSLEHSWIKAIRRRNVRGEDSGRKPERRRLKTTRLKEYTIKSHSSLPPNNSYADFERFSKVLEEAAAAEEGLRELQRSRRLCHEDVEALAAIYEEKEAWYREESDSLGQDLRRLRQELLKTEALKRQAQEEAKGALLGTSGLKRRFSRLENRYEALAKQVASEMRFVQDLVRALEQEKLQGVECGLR
In assay [6] the target is T3, Inhibitor of nuclear factor kappa-B kinase subunit alpha (Homo sapiens) (UniProt O15111).
T3 sequence (whole entry): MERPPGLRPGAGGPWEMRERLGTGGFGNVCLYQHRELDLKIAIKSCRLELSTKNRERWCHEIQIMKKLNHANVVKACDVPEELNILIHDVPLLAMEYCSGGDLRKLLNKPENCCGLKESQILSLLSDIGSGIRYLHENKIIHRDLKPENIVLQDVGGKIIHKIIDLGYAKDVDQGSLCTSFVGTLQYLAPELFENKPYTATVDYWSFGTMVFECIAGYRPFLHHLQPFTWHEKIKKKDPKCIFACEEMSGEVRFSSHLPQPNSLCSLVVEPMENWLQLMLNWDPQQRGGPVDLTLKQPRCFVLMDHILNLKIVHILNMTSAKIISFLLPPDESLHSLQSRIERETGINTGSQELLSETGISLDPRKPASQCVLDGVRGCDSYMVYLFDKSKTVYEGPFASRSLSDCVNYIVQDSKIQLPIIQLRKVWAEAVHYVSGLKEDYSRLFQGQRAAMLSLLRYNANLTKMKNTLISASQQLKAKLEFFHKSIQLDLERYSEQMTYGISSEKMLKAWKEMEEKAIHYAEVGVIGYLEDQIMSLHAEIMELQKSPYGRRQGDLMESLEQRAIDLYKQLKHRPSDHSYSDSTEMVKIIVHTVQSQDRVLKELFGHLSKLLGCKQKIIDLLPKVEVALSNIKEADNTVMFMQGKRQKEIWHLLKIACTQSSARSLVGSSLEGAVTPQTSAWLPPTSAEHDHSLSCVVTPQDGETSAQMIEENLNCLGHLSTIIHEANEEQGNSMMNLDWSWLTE
As to the kind of experiment: Selectivity interaction (KinomeScan (DiscoverX)) EUB0001619a CHUK. Conditions: at 1 µM.

For assay [7], the target named is Dual specificity mitogen-activated protein kinase kinase 1 (Homo sapiens, UniProt Q02750).
Dual specificity mitogen-activated protein kinase kinase 1, sequence (Q02750 whole entry): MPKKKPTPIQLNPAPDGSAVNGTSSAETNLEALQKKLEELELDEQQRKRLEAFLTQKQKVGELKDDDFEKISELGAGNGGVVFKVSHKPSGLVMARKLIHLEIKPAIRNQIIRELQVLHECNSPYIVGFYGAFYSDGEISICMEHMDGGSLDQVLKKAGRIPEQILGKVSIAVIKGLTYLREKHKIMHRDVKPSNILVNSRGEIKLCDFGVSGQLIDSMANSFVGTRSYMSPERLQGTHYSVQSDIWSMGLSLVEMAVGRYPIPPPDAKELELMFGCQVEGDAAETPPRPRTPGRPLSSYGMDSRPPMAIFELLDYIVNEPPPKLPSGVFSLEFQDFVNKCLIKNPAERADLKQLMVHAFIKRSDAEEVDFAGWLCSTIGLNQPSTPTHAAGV
For assay [8], the target named is Bromodomain-containing protein 3 (Homo sapiens) (UniProt Q15059). As to the kind of experiment: Selectivity interaction (Bromodomain panel (DSF asssay)) EUB0000270b BRD3.
Bromodomain-containing protein 3 (Homo sapiens), sequence (Q15059 2-726 limits assumed): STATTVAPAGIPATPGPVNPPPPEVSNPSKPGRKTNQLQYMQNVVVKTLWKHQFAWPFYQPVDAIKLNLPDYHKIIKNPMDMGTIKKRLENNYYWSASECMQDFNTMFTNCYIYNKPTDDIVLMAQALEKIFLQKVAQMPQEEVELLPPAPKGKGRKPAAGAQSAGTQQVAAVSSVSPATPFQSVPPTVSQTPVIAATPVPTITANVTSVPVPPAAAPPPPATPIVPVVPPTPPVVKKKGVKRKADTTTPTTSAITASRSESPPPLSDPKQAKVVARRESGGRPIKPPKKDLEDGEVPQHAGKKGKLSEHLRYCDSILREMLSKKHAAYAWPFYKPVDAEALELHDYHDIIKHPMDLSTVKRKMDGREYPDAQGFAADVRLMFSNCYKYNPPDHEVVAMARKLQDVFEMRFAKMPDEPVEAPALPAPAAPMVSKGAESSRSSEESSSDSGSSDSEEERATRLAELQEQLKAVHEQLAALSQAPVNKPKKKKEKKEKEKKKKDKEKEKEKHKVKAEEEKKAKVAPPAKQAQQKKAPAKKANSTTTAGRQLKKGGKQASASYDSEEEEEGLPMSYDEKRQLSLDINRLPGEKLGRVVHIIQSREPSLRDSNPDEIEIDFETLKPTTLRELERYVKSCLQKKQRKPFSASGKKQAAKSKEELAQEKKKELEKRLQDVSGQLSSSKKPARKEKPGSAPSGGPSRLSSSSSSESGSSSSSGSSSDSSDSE
In assay [9] the target is Epithelial discoidin domain-containing receptor 1 (Homo sapiens) (UniProt Q08345). The assay is described as follows: Selectivity interaction (KinomeScan (DiscoverX)) EUB0000045b DDR1.
Epithelial discoidin domain-containing receptor 1 (Homo sapiens), sequence (Q08345 whole entry, the tested form may be a part): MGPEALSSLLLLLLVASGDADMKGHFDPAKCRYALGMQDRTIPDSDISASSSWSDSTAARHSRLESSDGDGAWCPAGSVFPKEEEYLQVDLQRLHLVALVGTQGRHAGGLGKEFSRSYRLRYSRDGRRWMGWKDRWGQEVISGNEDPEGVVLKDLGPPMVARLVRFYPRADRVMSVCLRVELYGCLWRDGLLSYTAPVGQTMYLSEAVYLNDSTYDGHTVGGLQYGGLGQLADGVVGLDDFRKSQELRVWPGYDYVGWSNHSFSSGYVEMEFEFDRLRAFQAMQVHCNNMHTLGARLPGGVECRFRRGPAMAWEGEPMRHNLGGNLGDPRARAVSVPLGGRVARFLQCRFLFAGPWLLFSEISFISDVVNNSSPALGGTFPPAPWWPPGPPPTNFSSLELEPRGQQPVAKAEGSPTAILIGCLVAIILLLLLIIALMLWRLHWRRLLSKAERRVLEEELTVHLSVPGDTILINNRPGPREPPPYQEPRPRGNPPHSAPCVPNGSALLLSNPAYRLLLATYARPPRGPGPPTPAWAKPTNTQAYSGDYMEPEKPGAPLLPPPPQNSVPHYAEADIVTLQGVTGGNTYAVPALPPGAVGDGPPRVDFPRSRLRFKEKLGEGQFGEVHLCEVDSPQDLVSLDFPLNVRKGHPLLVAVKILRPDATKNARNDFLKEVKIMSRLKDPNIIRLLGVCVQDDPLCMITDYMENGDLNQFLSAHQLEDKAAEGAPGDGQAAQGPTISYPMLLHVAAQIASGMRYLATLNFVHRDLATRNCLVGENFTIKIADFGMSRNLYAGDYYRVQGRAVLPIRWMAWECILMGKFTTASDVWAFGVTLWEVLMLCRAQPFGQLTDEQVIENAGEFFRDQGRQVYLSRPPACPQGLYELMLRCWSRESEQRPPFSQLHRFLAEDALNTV
For assay [10], the target named is Serine/threonine-protein kinase MARK2 (Homo sapiens) (UniProt Q7KZI7). As to the kind of experiment: Selectivity interaction (KinomeScan (DiscoverX)) EUB0000045b MARK2.
Serine/threonine-protein kinase MARK2 (Homo sapiens), sequence (Q7KZI7 whole entry, canonical isoform): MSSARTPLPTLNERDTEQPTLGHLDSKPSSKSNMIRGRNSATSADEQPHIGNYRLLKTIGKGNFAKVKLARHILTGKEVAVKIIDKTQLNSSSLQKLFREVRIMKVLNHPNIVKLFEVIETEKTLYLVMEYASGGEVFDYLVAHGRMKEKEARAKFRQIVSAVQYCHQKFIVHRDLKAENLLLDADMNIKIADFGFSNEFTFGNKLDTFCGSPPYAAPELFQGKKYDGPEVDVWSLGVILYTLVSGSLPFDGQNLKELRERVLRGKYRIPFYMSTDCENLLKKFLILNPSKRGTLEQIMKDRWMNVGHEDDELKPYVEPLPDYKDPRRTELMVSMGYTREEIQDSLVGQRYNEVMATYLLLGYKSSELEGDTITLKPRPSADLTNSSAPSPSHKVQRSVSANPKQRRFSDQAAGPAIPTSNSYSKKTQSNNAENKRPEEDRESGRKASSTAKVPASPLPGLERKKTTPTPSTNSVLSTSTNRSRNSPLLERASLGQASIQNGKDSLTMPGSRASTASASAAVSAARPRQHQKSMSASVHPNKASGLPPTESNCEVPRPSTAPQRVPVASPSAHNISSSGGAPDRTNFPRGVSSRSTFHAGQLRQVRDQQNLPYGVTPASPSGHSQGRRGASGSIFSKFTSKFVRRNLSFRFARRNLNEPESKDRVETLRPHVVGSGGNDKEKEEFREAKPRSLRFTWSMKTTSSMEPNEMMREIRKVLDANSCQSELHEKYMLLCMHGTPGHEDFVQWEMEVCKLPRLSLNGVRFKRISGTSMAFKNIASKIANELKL
Assay [11] deals with Phosphatidylinositol 4,5-bisphosphate 3-kinase catalytic subunit alpha isoform (Homo sapiens), P42336 [H1047L]. Particulars: at 10 µM.

RAC-beta serine/threonine-protein kinase (Homo sapiens), sequence (P31751 whole entry): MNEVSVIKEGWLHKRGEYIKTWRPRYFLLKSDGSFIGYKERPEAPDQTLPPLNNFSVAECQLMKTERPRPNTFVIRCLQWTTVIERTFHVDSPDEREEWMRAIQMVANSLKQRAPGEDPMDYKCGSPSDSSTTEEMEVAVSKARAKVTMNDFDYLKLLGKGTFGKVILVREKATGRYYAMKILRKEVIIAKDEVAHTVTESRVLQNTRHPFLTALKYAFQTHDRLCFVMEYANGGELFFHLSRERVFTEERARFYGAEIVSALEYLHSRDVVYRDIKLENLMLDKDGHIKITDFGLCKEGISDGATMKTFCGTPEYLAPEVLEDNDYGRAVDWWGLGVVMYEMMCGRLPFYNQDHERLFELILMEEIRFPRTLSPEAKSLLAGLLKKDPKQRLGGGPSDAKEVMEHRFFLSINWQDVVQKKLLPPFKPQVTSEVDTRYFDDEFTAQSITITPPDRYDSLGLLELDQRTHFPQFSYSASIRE

On to `CNC(=O)Nc1ccc(-c2nc(N3CC4CCC(C3)O4)c3cnn(C4CCC5(CC4)OCCO5)c3n2)cc1`, for which the % of inhibition turned out to be 5% in assay [1] and 9% in assay [4]. Moreover, the % of control is 100% in assay [2] and 94% in [3].

As for `Cc1cc([C@@H](C)Nc2ccccc2C(=O)O)c2nc(N3CCOCC3)cc(=O)n2c1` [AZD-6482], the % of control in assay [5] amounted to 100%.

Regarding `N#Cc1cccc(-c2c[nH]c3ncnc(N4CCOCC4)c23)c1`, the % of control in [6] is 71%.

Compound `CC(=O)Nc1cccc(-n2c(=O)n(C3CC3)c(=O)c3c(Nc4ccc(I)cc4F)n(C)c(=O)c(C)c32)c1` registered a Kdapp in [7] of 62 nM.

Turning to `Cc1cc(CN)cc(C)c1-c1ncn(C)c1-c1cncn1C`, the dTM in [8] was -3.97 K.

For `C=CC(=O)Nc1cc(-n2c(=O)ccc3cnc4ccc(-c5ccc(NS(C)(=O)=O)cc5)cc4c32)ccc1C`, the % of control in assay [9] (at 1 µM) was determined as 100%; in assay [9] (at 10 µM), 75%; in assay [10] (at 1 µM) it was 94%; in [10] (at 10 µM) it was 100%.

In assay [11], `COCC(=O)NC/C=C/c1ccc2ncnc(Nc3ccc(Oc4ccc(C)nc4)c(C)c3)c2c1` [CP-724714] showed a % of control of 100%.
